{"source": "paper PMC7358525", "about": "“Characterization of PF-6142, a Novel, Non-Catecholamine Dopamine Receptor D1 Agonist, in Murine and Nonhuman Primate Models of Dopaminergic Activation” (Frontiers in Pharmacology, 2020)", "key": {"[1]": {"tested_on": "ketamine-induced working memory deficits", "assay": "Ketamine-disrupted radial arm maze (RAM)", "format": "in vivo, rat", "conditions": "0.01, 0.056, 0.178, 0.56 mg/kg s.c., 90 min before ketamine 10 mg/kg", "text": "Two cohorts of adult male Long-Evans rats (N=30 each) were trained in a spatial working memory task on an eight-arm RAM, (Pathfinder Maze System, Lafayette Instrument Co., Lafayette, IN), using a procedure adapted from [Ward et al. (1990)] and described in detail in [Strick et al. (2011)]. Briefly, rats were food-restricted to provide motivation to perform the RAM task. The task requires that the animals enter each arm to retrieve a reinforcement food pellets, using spatial cues in the room to remember which arms of the maze they have previously entered. Rats were individually placed on the maze and allowed to navigate until all eight arms were entered and the pellets were consumed or until 30 choices were made, or until 5 min had elapsed. Entry into an arm previously entered was counted as an error. […] Training continued until all animals had reached the training criterion, defined as two or fewer errors on two consecutive days. […] Performance on the maze was evaluated 30 min later by an observer that was blinded to treatments.\nThe R 3.0.1 statistical software was used to compare the error rate data. The effects of treatment and the interaction on the error rate were assessed using a one-way mixed model ANOVA using generalized least squares method from lme4 library. […]"}, "human D1 receptor": {"tested_on": "human D1 receptor", "conditions": "stated in discussion, no data or reference printed; cited from earlier work"}, "[2]": {"tested_on": "mPFC low frequency delta activity", "assay": "mPFC low frequency delta field potential oscillation power, anesthetized rat", "format": "in vivo", "experimental": "Experiments were performed on n=10 adult male Sprague-Dawley rats (275–305 g) under urethane anesthesia (1.5 g/kg, i.p.). The femoral vein was cannulated for i.v. administration of drugs. A stimulation electrode was placed in the CA1/subiculum region (coordinates: A-P = +6.3 mm, M–L = +5.2 mm, D-V = +8.0 mm) using stereotactic methods and unilateral local field potential (LFP) was recorded by a metal monopolar macroelectrode placed into the medial PFC (mPFC; coordinates: A-P = +3.0 mm, M-L = +0.6 mm, D-V = +5.0 mm). […] Evoked responses to the first and the second stimuli were identified (P1 and P2, respectively) and the amount of PPF determined by the formula: (P2 amplitude/P1 amplitude). Waveform averages used to calculate PPF consisted of 60 consecutive stimuli. Five minutes were allowed between administration of each drug dose and the starting of the subsequent average of each 10-min period after each cumulative dose (0.1–1 mg/kg, IV). Disruption in power of LFP delta activity was measured as the percentage of power in low frequency (0–1.8 Hz) irregular activity in the total (0–4 Hz) delta power range. LFP power spectra were determined during periods concurrent with waveform averages and PPF calculation. Statistical significance was determined by means of two-tailed paired Student’s t-test."}}, "data": [{"molecule": "Cc1cc(Oc2nccc3occc23)ccc1-c1c(C)ncc2nccn12", "note": "[PF-6142]", "values": [{"measurement": "ketamine-induced error rate in RAM", "setting": "[1]", "result": "decreased the ketamine-induced error rate at all, except for the lowest dose administered"}, {"measurement": "affinity", "setting": "human D1 receptor", "result": "moderate affinity"}, {"measurement": "MK-801-induced increases in low frequency delta", "setting": "[2]; PF-6142 0.1-1 mg/kg IV cumulative", "result": "dose-dependently reversed"}, {"measurement": "MK-801-induced increases in low frequency delta activity after SCH-23390 pretreatment", "setting": "[2]; PF-6142 cumulative IV up to 3 mg/kg (p=0.11)", "result": "no effect"}]}]}
